In US20230406804A1, “PROTEIN KINASE INHIBITORS” (Xavier University of Louisiana, priority 2018, published 2023):
“Also recorded” adds a separate entry of the source.

Tests used:
MCF-7/HER2 = test: CellTiter-Glo cell viability, IC50; type: cell-based; conditions: Homo sapiens, MCF7, 48 h treatment
Description: (§1) The antagonistic activities of the compounds were tested in an estrogen receptor positive (ER+) breast cancer cell line, MCF7 breast cancer cell lines expressing HER2, HER2Δ16 and empty vector. Lapatinib was used as the positive control. The cells were treated with the compounds at 10 μM concentration for 48 h. After treatment, cell viability was tested using the CellTiter-Glo Assay (Promega). […] The […] best compounds 7, 9, the mixture of 8a+8b, 25 and 27 were then taken up for further studies.

MCF-7/HER2Δ16 = test: CellTiter-Glo cell viability, IC50; type: cell-based; conditions: Homo sapiens, MCF7, 48 h treatment, read-out: IC50 MCF-7/HER2D16
Description: as §1

MCF-7/pcDNA = test: CellTiter-Glo cell viability, IC50; type: cell-based; conditions: Homo sapiens, MCF7, 48 h treatment
Description: as §1

HER2 residue Y1248 = test: Western blot of HER2 autophosphorylation; type: cell-based; conditions: 10 μM, 2 h; MCF7/pcDNA, MCF7/HER2, MCF7/HER2Δ16
Text: (§2) HER2 is a member of the erbB family of tyrosine kinases, which is comprised of four partial homologous transmembrane receptors: EGFR/HER1 (erbB1), HER2 (erbB2/neu), HER3 (erbB3), and HER4 (erbB4). […] Ligand binding induces homo- or hetero-dimerization through disulfide bond linkage, and leads to receptor activation and tyrosine auto-phosphorylation. HER2 is a preferred dimerization partner due to its high catalytic activity and forms potent heterodimers with EGFR and HER3. HER2, with its intrinsic kinase activity can transphosphorylate other members of the erbB family. HER2 and HERΔ16 are overexpressed in the breast cancer cell lines that have been used in this study, leading to the kinases being constitutively active. Upon dimerization, the constitutively active HER2 and HER2Δ16 receptors can transphosphorylate coexpressed EGFR. The levels of phosphorylated HER2 in the parental MCF-7 cell line were less, resulting in its lack of dimerization with EGFR and its transphosphorylation. Western blots were performed to determine the ability of the compounds to inhibit the activation of the HER2 receptor (FIG. 7). The total and phosphorylated protein were detected upon treatment of each of the cells lines with the compounds 6, 7, 8a+8b, 9, 15, 25, 26, 27 and 28 (2-methyl-4,6-dinitro-1H-indene-1,3(2H)-dione) along with the positive control lapatinib at 10 μM concentration for 2 h. […] Compounds 26 and 28 from FIG. 5 were used as negative controls.

EGFR residue Y1068 = target: T1, EGFR residue Y1068 (Homo sapiens, UniProt P00533); test: Western blot of EGFR transphosphorylation; type: cell-based; conditions: 10 μM, 2 h; MCF7/pcDNA, MCF7/HER2, MCF7/HER2Δ16
T1 construct: endogenous in cells; host or cells: MCF-7/pcDNA, MCF-7/HER2, MCF-7/HER2Δ16
Text: as §2

[1] = system: MCF7 breast cancer cell lines expressing HER2, HER2Δ16 and empty vector; test: High-throughput cell viability screen at 10 μM (CellTiter-Glo); type: cell-based; conditions: for suppression of cell viability / inhibition in the high-throughput assay: 48 h
Description: The antagonistic activities of the compounds were tested in an estrogen receptor positive (ER+) breast cancer cell line, MCF7 breast cancer cell lines expressing HER2, HER2Δ16 and empty vector. Lapatinib was used as the positive control. The cells were treated with the compounds at 10 μM concentration for 48 h. After treatment, cell viability was tested using the CellTiter-Glo Assay (Promega).

[2] = system: BT20, MDA-MB-468, MDA-MB-231, SKBR3, BT474, SUM 190PT and SUM 225CWN; test: Growth inhibition of a panel of breast cancer cell lines; type: cell-based; conditions: triple negative, trastuzumab sensitive and trastuzumab resistant cell lines; read-out: IC50 growth inhibition, range over breast cancer cell line panel
Text: (§3) Compound 7 was taken up for further analysis of its ability to inhibit the growth of a panel of breast cancer cell lines of varied types. The panel included the triple negative cell lines BT20, MDA-MB-468 and MDA-MB-231, the trastuzumab sensitive cell lines SKBR3 and BT474, and the trastuzumab resistant cell lines SUM 190PT and SUM 225CWN (FIG. 9).

MDA-MB-231 = test: as above; type: cell-based
Text: as §3

[3] = system: Aurora kinases A/B (AurK A/B); test: Cross kinase panel high-throughput assay; type: biochemical; conditions: 10 μM
Description: (§4) Compound 7 was then subjected to a cross kinase panel high-throughput assay at 10 μM concentration, at Life Technologies, to determine the selectivity of kinase inhibition (FIG. 10). A panel of 120 disease relevant kinases (available with Life Technologies) were studied. 11 kinases were inhibited at 80% or more-protein kinase B 1/2 (also known as AKT1/2), Aurora kinases A/B (AurK A/B), checkpoint kinase 2 (CHEK2), feline sarcoma kinase (FES), fibroblast growth factor 1 (FGFR1), I kappa B kinase B/E (IKK B/E), mitogen activated protein kinase kinase 1 (MAP2K1), mitogen activated protein kinase kinase kinase 8 (MAP3K8), Never in Mitosis (NIMA) related kinase 2 (NEK2), polo-like kinase 1/3 (PLK1/3), serum/glucocorticoid regulated kinase 1 (SGK1) and TEK tyrosine kinase. All these kinases except for CHEK2 are reported to have tumorigenic roles in breast cancer.

[4] = system: I kappa B kinase B/E (IKK B/E); test: Cross kinase panel high-throughput assay; type: biochemical; conditions: 10 μM
Description: as §4

[5] = target: T2, Never in Mitosis (NIMA) related kinase 2 (NEK2) (Homo sapiens, UniProt P51955); test: Cross kinase panel high-throughput assay; type: biochemical
T2 sequence (P51955 1-445): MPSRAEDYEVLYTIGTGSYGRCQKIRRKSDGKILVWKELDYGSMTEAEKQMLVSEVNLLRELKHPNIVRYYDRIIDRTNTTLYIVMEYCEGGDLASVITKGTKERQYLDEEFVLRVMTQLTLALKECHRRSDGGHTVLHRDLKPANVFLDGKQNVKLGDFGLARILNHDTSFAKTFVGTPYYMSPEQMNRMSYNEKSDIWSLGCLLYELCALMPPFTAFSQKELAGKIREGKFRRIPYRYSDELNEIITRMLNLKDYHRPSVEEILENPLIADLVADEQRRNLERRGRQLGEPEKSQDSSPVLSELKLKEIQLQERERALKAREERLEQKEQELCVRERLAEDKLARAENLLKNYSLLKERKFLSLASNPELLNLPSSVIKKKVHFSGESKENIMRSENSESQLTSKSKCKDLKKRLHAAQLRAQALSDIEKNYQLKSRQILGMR
Description: as §4

TEK tyrosine kinase = TEK tyrosine kinase (Homo sapiens, UniProt Q02763); test: Cross kinase panel high-throughput assay; type: biochemical
Description: as §4

[6] = target: checkpoint kinase 2 (CHEK2) (Homo sapiens, UniProt O96017); test: Cross kinase panel high-throughput assay; type: biochemical
Description: as §4

[7] = target: feline sarcoma kinase (FES) (Homo sapiens, UniProt P07332); test: Cross kinase panel high-throughput assay; type: biochemical
Description: as §4

[8] = target: fibroblast growth factor 1 (FGFR1) (Homo sapiens, UniProt P11362); test: Cross kinase panel high-throughput assay; type: biochemical
Description: as §4

[9] = target: mitogen activated protein kinase kinase 1 (MAP2K1) (Homo sapiens, UniProt Q02750); test: Cross kinase panel high-throughput assay; type: biochemical
Description: as §4

[10] = target: mitogen activated protein kinase kinase kinase 8 (MAP3K8) (Homo sapiens, UniProt P41279); test: Cross kinase panel high-throughput assay; type: biochemical
Description: as §4

[11] = system: polo-like kinase 1/3 (PLK1/3); test: Cross kinase panel high-throughput assay; type: biochemical; conditions: 10 μM
Description: as §4

[12] = system: protein kinase B 1/2 (AKT1/2); test: Cross kinase panel high-throughput assay; type: biochemical; conditions: 10 μM
Description: as §4

[13] = target: T3, serum/glucocorticoid regulated kinase 1 (SGK1) (Homo sapiens, UniProt O00141); test: Cross kinase panel high-throughput assay; type: biochemical
T3 sequence (O00141 1-431): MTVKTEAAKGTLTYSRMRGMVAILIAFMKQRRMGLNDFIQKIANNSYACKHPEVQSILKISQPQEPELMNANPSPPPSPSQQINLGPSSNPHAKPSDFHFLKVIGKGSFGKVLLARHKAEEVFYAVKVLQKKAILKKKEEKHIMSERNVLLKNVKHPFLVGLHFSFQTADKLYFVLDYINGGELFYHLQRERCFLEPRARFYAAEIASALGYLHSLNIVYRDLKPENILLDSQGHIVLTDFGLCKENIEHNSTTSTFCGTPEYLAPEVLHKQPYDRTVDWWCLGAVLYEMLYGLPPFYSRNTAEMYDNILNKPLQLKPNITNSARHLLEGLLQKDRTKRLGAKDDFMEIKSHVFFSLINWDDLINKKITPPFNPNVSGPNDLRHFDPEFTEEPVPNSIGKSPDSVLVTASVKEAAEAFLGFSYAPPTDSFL
Description: as §4

T1 sequence (P00533 25-1210): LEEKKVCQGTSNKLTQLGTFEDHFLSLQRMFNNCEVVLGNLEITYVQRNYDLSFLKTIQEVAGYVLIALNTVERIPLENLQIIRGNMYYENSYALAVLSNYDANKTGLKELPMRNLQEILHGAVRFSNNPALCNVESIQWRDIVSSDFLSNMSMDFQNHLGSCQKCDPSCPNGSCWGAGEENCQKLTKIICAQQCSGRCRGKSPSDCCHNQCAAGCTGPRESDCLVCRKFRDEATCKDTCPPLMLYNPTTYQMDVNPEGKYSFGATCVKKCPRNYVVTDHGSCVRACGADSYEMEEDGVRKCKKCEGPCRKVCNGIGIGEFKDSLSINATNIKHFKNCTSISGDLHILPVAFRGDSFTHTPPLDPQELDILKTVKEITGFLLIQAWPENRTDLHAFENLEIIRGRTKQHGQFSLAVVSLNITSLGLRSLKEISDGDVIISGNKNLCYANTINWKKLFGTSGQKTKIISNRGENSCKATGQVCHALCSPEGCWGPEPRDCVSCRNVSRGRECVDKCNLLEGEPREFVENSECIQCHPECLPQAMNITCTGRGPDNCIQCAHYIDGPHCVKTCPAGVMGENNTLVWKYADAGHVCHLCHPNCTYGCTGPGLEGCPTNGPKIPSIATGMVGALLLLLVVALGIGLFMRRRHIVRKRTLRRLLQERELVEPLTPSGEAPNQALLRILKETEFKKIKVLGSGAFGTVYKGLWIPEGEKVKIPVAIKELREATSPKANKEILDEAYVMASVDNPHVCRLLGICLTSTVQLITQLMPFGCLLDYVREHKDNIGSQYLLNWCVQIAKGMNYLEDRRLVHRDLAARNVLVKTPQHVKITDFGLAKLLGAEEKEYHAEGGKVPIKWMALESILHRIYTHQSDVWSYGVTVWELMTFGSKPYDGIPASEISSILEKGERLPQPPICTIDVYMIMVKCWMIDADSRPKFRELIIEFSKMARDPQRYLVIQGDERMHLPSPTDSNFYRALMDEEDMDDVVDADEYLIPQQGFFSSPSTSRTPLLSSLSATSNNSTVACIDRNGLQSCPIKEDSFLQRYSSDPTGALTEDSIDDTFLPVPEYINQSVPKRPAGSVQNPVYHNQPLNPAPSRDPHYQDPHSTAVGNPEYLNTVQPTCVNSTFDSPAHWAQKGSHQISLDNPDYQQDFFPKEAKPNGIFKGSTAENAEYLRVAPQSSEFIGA
mitogen activated protein kinase kinase 1 (MAP2K1), sequence (Q02750 whole entry): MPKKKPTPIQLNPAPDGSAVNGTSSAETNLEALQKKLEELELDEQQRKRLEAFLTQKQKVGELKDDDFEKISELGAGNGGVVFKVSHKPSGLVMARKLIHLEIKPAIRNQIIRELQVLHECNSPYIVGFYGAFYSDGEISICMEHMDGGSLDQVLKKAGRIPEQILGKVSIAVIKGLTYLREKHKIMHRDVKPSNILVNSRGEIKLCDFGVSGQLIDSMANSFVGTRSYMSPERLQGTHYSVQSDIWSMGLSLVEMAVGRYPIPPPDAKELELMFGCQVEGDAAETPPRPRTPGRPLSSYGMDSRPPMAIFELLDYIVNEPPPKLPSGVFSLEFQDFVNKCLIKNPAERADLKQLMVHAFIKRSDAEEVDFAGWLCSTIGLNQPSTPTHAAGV
fibroblast growth factor 1 (FGFR1), sequence (P11362 22-822): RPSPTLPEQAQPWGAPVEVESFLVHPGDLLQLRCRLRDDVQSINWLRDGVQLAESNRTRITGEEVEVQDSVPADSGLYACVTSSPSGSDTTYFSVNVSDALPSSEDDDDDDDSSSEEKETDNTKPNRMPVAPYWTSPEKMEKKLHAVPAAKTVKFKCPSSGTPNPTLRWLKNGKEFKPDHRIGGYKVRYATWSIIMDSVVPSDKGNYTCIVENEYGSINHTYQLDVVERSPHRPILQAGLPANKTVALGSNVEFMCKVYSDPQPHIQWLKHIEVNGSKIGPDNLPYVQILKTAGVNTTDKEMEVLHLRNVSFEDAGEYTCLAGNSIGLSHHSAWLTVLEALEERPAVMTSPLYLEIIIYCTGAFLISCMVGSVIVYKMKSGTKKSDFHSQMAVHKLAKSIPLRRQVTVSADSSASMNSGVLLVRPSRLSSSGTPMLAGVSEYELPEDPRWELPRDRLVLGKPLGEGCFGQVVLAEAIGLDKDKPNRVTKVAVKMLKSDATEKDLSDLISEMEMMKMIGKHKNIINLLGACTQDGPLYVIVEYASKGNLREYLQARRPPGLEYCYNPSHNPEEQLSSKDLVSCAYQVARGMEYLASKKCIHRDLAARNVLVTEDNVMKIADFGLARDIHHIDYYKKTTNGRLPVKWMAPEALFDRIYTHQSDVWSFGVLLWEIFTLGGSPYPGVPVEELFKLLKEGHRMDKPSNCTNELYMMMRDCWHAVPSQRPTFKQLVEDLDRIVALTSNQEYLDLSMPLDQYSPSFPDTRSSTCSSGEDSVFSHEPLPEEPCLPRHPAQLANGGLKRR
TEK tyrosine kinase, sequence (Q02763 23-1124): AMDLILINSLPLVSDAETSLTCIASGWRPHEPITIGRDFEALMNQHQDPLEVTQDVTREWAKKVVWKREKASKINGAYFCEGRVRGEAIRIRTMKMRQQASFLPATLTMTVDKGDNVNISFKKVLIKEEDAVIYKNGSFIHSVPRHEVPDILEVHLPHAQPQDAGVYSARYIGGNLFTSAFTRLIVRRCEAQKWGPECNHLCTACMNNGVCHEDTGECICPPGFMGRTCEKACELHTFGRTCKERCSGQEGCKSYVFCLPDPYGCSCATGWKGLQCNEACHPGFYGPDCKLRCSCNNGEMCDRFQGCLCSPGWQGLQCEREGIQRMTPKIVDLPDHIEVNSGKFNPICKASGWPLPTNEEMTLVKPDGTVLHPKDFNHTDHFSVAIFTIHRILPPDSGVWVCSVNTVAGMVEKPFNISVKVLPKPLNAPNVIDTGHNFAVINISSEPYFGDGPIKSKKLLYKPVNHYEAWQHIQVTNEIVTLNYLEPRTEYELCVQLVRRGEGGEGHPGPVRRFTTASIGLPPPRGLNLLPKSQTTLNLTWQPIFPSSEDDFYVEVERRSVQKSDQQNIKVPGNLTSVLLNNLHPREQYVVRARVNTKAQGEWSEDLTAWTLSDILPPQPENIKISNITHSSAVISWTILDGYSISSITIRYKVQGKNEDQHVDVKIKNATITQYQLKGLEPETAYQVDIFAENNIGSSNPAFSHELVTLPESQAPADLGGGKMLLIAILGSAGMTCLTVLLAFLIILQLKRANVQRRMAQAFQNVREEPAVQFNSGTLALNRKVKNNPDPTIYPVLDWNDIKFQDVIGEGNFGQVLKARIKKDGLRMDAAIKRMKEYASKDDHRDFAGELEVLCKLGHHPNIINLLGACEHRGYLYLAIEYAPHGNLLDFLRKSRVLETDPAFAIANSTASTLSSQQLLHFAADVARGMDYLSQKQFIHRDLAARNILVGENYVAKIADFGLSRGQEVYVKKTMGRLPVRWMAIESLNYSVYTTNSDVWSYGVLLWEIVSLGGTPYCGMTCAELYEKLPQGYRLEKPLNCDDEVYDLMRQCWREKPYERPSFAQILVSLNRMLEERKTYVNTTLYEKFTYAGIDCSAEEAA
mitogen activated protein kinase kinase kinase 8 (MAP3K8), sequence (P41279 whole entry): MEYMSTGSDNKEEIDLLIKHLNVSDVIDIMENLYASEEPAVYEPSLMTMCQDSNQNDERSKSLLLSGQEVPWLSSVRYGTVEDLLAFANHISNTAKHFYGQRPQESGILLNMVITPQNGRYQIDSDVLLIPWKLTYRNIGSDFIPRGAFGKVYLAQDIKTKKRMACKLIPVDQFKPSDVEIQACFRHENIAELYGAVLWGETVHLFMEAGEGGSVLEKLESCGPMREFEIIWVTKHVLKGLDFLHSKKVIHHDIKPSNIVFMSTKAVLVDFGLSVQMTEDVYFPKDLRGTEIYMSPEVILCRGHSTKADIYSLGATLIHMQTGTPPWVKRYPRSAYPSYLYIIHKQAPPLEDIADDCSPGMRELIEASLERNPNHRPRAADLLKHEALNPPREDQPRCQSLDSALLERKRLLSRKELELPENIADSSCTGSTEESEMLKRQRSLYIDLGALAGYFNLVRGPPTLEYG
checkpoint kinase 2 (CHEK2), sequence (O96017 whole entry): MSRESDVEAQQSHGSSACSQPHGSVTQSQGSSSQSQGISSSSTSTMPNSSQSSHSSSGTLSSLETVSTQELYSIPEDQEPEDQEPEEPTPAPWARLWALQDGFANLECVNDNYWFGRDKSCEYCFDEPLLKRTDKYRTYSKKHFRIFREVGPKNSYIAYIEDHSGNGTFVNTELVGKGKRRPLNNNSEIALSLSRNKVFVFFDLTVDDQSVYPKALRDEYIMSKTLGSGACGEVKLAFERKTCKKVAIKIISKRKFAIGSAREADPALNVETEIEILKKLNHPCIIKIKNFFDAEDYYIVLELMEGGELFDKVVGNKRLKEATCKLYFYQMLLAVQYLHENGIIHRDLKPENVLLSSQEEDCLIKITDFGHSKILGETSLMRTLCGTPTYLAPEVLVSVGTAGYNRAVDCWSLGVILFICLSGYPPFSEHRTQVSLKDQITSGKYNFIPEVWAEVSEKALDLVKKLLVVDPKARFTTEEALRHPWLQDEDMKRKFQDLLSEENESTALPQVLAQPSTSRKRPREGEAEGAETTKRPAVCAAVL

| IC50 (MCF-7/HER2) [µM] | IC50 (MCF-7/HER2Δ16) [µM] | IC50 (MCF-7/pcDNA) [µM] | SMILES | inhibition of autophosphorylation at HER2-Y1248 (western blot) (HER2 residue Y1248) | inhibition of phosphorylation at EGFR-Y1068 (western blot) (EGFR residue Y1068) | suppression of cell viability / inhibition in the high-throughput assay [1] | other results |
| --- | --- | --- | --- | --- | --- | --- | --- |
| 4.61 | 9.39 | 2.93 | Cc1ccc(O)c2c1C(=O)C=CC2=O [Compound 22, 5-hydroxy-8-methylnaphthalene-1,4-dione] |  |  |  |  |
| 15.8 | 19.2 | 15.7 | CS(=O)(=O)CCNCc1ccc(-c2ccc3ncnc(Nc4ccc(OCc5cccc(F)c5)c(Cl)c4)c3c2)o1 [Lapatinib, reference compound] |  |  |  | viability at 10 µM ([1]; Homo sapiens, MCF7, 48 h): < 70% |
| 3.18 | 7.3 | 4.94 | COc1cc(C)cc2c1C(=O)C=CC2=O [Compound 27, 5-methoxy-7-methylnaphthalene-1,4-dione] | did not show such an effect on auto-phosphorylation; also recorded: did not show notable inhibition of phosphorylation |  | showed notable inhibition |  |
| 0.29 | 0.51 | 0.32 | Cc1cc(O)c2c(c1O)C(=O)C=CC2=O [Compound 7, 5,8-dihydroxy-6-methylnaphthalene-1,4-dione] | significantly decreased HER2 activating phosphorylation to the same extent as lapatinib; also recorded: inhibit the phosphorylation | decreased; also recorded: inhibit the phosphorylation |  | IC50 [2]: 0.123 to 2.92 µM; fold decrease in potency versus the other cell lines (MDA-MB-231): 3-4 fold; kinase inhibition AurK A/B [3]: ≥ 80%; kinase inhibition IKK B/E [4]: ≥ 80%; inhibition at 10 µM [5]: ≥ 80%; inhibition at 10 µM (TEK tyrosine kinase): ≥ 80%; inhibition at 10 µM [6]: ≥ 80%; inhibition at 10 µM [7]: ≥ 80%; inhibition at 10 µM [8]: ≥ 80%; inhibition at 10 µM [9]: ≥ 80%; inhibition at 10 µM [10]: ≥ 80%; kinase inhibition PLK1/3 [11]: ≥ 80%; kinase inhibition AKT1/2 [12]: ≥ 80%; inhibition at 10 µM [13]: ≥ 80% |
|  |  | 30.9 | Cc1cc(O)c2c(c1)C(=O)C=CC2=O [Compound 25, 5-hydroxy-7-methylnaphthalene-1,4-dione] | did not show such an effect on auto-phosphorylation; also recorded: did not show notable inhibition of phosphorylation |  | showed notable inhibition |  |

Continued, compound first:

| SMILES | IC50 (MCF-7/HER2) [µM] | IC50 (MCF-7/HER2Δ16) [µM] | IC50 (MCF-7/pcDNA) [µM] | inhibition of autophosphorylation at HER2-Y1248 (western blot) (HER2 residue Y1248) | inhibition of phosphorylation at EGFR-Y1068 (western blot) (EGFR residue Y1068) | suppression of cell viability / inhibition in the high-throughput assay [1] | other results |
| --- | --- | --- | --- | --- | --- | --- | --- |
| CC1=CC(=O)c2c(O)ccc(O)c2C1=O [Compound 6, 5,8-dihydroxy-2-methylnaphthalene-1,4-dione] |  |  |  | significantly decreased HER2 activating phosphorylation to the same extent as lapatinib; also recorded: inhibit the phosphorylation | decreased; also recorded: inhibit the phosphorylation |  |  |
| CC1C(=O)c2cc([N+](=O)[O-])cc([N+](=O)[O-])c2C1=O (stereo not shown) [Compound 28, 2-methyl-4,6-dinitro-1H-indene-1,3(2H)-dione] |  |  |  | shows significant phosphorylation | shows significant phosphorylation | did not show notable growth inhibition |  |
| O=C1C=CC(=O)c2c(O)cc(CBr)cc21 [Compound 26, 5-hydroxy-7-bromomethylnaphthalene-1,4-dione] |  |  |  | did not show such an effect on auto-phosphorylation; also recorded: did not show notable inhibition of phosphorylation |  | showed notable inhibition |  |
| O=C1C=C(CBr)C(=O)c2c(O)ccc(O)c21 [Compound 9, 2-(bromomethyl)-5,8-dihydroxynaphthalene-1,4-dione] | 1.78 | 3.61 | 1.66 | significantly decreased HER2 activating phosphorylation to the same extent as lapatinib; also recorded: inhibit the phosphorylation | decreased; also recorded: inhibit the phosphorylation |  |  |
